Test results: patent US10806729B2, “Quinoline derivatives for use in the treatment or prevention of viral infection” (ABIVAX, priority 2015, dated 2020)
“Also recorded” adds a separate entry of the source.

Experiments:
[1] = tested on: resistant mutants of NL4.3 strain (K103N, K65R and M184V); settings: human PBMCs, NL4.3 mutants K103N
[2] = tested on: HIV-1 strains (clade B, clade C and recombinants clades); assay: p24 inhibition in PBMCs infected with different HIV-1 strains (patient isolates); assay type: cell-based; settings: 5 μM, 6 days pi, subtype B, C and recombinant viruses
Method: FIG. 2. HIV p24 inhibition of Compound 22 from different HIV-1 strains. A) Different HIV-1 strains (clade B, clade C and recombinants clades) were used to infect PBMCs from three different donors in the absence of presence of 5 μM of Compound 22. Supernatant was harvested 6 days pi and viral capsid protein p24 antigen was quantitated using standard ELISA protocol.

[3] = tested on: HIV-1
Method: Resistance to Compound 22 was tested on human PBMCs and compared to current therapies. […] Various classes of antiviral agents can affect the life cycle of HIV-1 in different manners. […] The selection of drug resistant mutants in vitro can be readily accomplished by maintaining the virus in a state of sub-optimal growth, regulated by slowly increasing the amount of drug pressure applied. This technique mimics the consequences of drug therapy in patients. Therefore, in this way, novel compounds can be assessed for their selection profile in order to evaluate the likelihood of emergence of HIV-1 drug resistance in future clinical trials. In addition, combinations of drugs can be investigated in the same manner.

[4] = tested on: HIV-1 strain YU2; assay: HIV-1 p24 production in infected monocyte derived macrophages (ELISA); assay type: cell-based; settings: Human immunodeficiency virus 1, Primary macrophage; primary macrophages infected with Yu-2, at 0.1 μM; read-out: inhibition levels of virus replication (p24)
Excerpt: FIG. 1. Potency of quinoline derivatives to inhibit HIV-1 production in PBMC- and macrophages-infected cells. […] Each point represents 6 donors. B) HIV-1 strain YU2 was used to infect triplicate of monocyte derived-macrophages from different donors in the absence or presence of increasing concentrations of Compound 22. […] Each point represents 8 donors. To generate monocyte derived macrophages (MDMs), monocytes were isolated using CD14 microbeads (catalog no. 130-050-201; Miltenyi) and cultured in X-VIVO10 medium (Lonza) supplemented with GM-CSF 1000 U/ml and M-CSF 100 ng/ml for 6 days. Monocytes were seeded at a cell count of 50,000 cells per well in a 96 well plate. After 6 days medium was replaced with X-VIVO10 w/o Cytokines. After 2 days Macrophages were treated with Compound 22 and/or its N-glucuronide metabolite o/n and next day infected with Yu-2 virus for 6 hrs, washed with PBS and cultured in medium containing the compounds for 12 days. Supernatant for p24 Elisa was collected 2 times a week. Cells were treated with 0.01 μM up to 30 μM and p24 antigen levels were monitored in culture supernatant over a 12 day period. Cell culture supernatant HIV p24 titration was performed by ELISA with Ingen Innotest kit (Ingen Ref 80564) according to the manufacturer's instructions.

[5] = tested on: primary macrophages; assay: Cell viability of treated primary macrophages; assay type: cell-based, human; settings: macrophages under treatment (data not shown)
Method: To generate monocyte derived macrophages (MDMs), monocytes were isolated using CD14 microbeads (catalog no. 130-050-201; Miltenyi) and cultured in X-VIVO10 medium (Lonza) supplemented with GM-CSF 1000 U/ml and M-CSF 100 ng/ml for 6 days. Monocytes were seeded at a cell count of 50,000 cells per well in a 96 well plate. After 6 days medium was replaced with X-VIVO10 w/o Cytokines. After 2 days Macrophages were treated with Compound 22 and/or its N-glucuronide metabolite o/n and next day infected with Yu-2 virus for 6 hrs, washed with PBS and cultured in medium containing the compounds for 12 days. Supernatant for p24 Elisa was collected 2 times a week.

[6] = tested on: alternative splicing events of endogenous genes; assay: RT-PCR analysis of global alternative splicing events in PBMC samples; assay type: cell-based, human
Excerpt: Quantification of non-viral RNA splicing is achieved using the protocols detailed in […] et al. (Multiple alternative splicing markers for ovarian cancer. Cancer Res. 68, 657-663 (2008)) and Venables et al. (Cancer-associated regulation of alternative splicing. Nat. Struct. Mol. Biol. 16, 670-676 (2009)). […] These 382 alternative splicing events (ASEs) represent a high throughput random snapshot of global alterations of alternative splicing. We performed high throughput PCR analysis of these (essentially random) 382 ASEs on multiple PBMC samples, either from untreated (cells) or treated with DMSO, Compound 22 or with the control antiviral drug (Darunavir). Analysis of the data allowed further stringent quality controls; ASEs were only considered if >75% of the products ran at the expected mobilities (i.e. if the reactions were pure) and if total expected PCR concentration was higher than 20 nM (i.e. if the reactions were strong) which led to 264 remaining ASEs.

[7] = tested on: HIV RNA splicing; assay: Sequence capture and 454 pyrosequencing of HIV RNA in infected PBMCs; assay type: cell-based, HIV-1
Method: To test whether Compound 22 influences the splicing of HIV RNA in infected cells, an array-based sequence capture was performed using a customized library probes targeting HIV sequences to get rid of cellular RNA. The probes were used to capture cDNAs prepared from infected treated and untreated PBMCs. After double capture, libraries were prepared and sequenced using 454 pyrosequencing (according to GS junior method manual). The average size of the reads around 400 bp allowed unambiguous assembly of viral genome from untreated sample (after 3 and 6 days of infection) using reads that were not mapped to human genome (hg19). All sequencing data were analysed using gsnap, as detailed in Wu et al. (Fast and SNP-tolerant detection of complex variants and splicing in short reads. Bioinformatics 26, 873-881 (2010)).

[8] = tested on: PBMCs; assay: Lymphocyte populations in treated PBMCs; assay type: cell-based, human; settings: PBMCs under treatment
[9] = tested on: lymphocyte populations (CD45+; CD4+ and CD8+); assay: Lymphocyte populations in engrafted humanized mice treated for 30 days; assay type: in vivo; settings: 20 mg/kg or 40 mg/kg for one month, compared to controls without treatment
Method: C) Engrafted NSG humanized mice were treated by oral gavage with Compound 22 at either 20 mg or 40 mg/kg once a day for 30 days and indicated lymphocyte populations (CD45+; CD4+ and CD8+) were monitored by FACS analysis.
NOD.scid.IL2R−/− (NSG) mice were bred and maintained in individual ventilated cages and were fed autoclaved food and water.
Briefly, newborn (<5 days old) NSG mice received sub-lethal (1Gy) total body irradiation with a Cs source, and then received 2×105 transduced or untransduced CD34+ human HSCs using a 50 μl Hamilton syringe via the intrahepatic (i.h.) route. All manipulations of NSG-HIS mice were performed under laminar flow. […] Mice were monitored three times a week for symptoms or signs of adverse events, according to a standard score sheet.
Cell suspensions were labeled with anti-human monoclonal antibodies (mAb) targeting the following cell-surface markers: CD45-FITC, CD3-PE, CD4-Pe Cy7, CD8-BV421 and CD19-APC (all from Biolegend). Washing and reagent dilutions were done with FACS buffer (PBS containing 2% fetal calf serum and 0.05% sodium azide (NaN3). All acquisitions were performed on a Cyan ADP (Beckman Coulter) flow cytometer. Data were analyzed with FlowJo software (Ashland, Oreg.). Cellular debris and dead cells were excluded by their light-scattering characteristics.

[10] = tested on: HIV-1 genome (YU2); assay: Deep sequencing of virus from treated infected primary macrophages and after amplification in PBMCs; assay type: cell-based; settings: deep sequencing across HIV-1 genome, treated vs untreated samples
Excerpt: To test for emergence and/or selection of mutations associated with Compound 22 treatment, we applied a deep sequencing approach for sensitive detection of low-frequency viral variants across the entire HIV-1 genome. Viruses derived from treated and untreated infected primary macrophages of 4 different donors were sequenced and reads not aligning to human genome were aligned to YU2 sequence using gsnap, as detailed in Wu et al. (Fast and SNP-tolerant detection of complex variants and splicing in short reads. Bioinformatics 26, 873-881 (2010)).
To ascertain that amplification of viruses from treated samples will not mutate when amplified in PBMCs, they were sequenced following amplification with or without drug pressure.

In the case of `FC(F)(F)Oc1ccc(Nc2ccc3cccc(Cl)c3n2)cc1` [Compound 22, 8-chloro-N-(4-(trifluoromethoxy)phenyl)quinolin-2-amine], the “inhibition of replication of viral strains harbouring resistance mutations (RT activity)” value [1] is reported as “very efficiently inhibits”, the “inhibitory effect on HIV-1 subtypes (p24)” value [2] is reported as “strong inhibitory effect” and the genotoxicity ([3]; conclusion drawn from the mutation selection results) is reported as “not genotoxic”. For the same compound, the “Time of Selection (weeks)” value ([3]; human PBMCs, increasing drug pressure) was 24 weeks, the “resistance-inducing mutations detected after treatment” value ([3]; treatment for at least 24 weeks) was “no resistance-inducing mutations detected” and the inhibition at 0.1 µM [4] was no more than 90%. The cell viability [5] was “not decreased”, the “global effect on pre-mRNA splicing” value [6] was “no global effect” and the “effect on spliced HIV RNA” value [7] was “favours spliced HIV RNA”. For the same compound, the “coverage of viral genome (number of reads)” value ([7]; 3 days post infection) was 4149 reads, the “reads corresponding to splice junctions” value ([7]; 3 days post-infection) was 17.4% and the number of reads ([7]; 6 days post-infection) was 20 585. The “reads corresponding to splice junctions” value ([7]; 6 days post-infection) was 13.3%, the “populations of lymphocytes present in PBMCs” value [8] was “did not alter” and the “engraftment values of CD45+ cells and ratio of CD8+/CD4+” value [9] was “neither alters engraftment values of CD45+ cells nor the ratio of CD8+/CD4+”. For the same compound, the “selection of specific viral mutations” value [10] was “does not select for specific mutations; also recorded: unlikely to select for specific viral mutations” and the “selection of specific viral mutations” value ([10]; listed as compound 22) was “do not select for HIV specific mutations”.
